This is an account of results in patent US20060276464A1, “Diarylsulfone sulfonamides and use thereof” (Wyeth, priority 2005, published 2006).

Experiment [1] has as its target T1, SFRP-1 (Homo sapiens, UniProt Q8N474).
T1 sequence (Q8N474 32-314): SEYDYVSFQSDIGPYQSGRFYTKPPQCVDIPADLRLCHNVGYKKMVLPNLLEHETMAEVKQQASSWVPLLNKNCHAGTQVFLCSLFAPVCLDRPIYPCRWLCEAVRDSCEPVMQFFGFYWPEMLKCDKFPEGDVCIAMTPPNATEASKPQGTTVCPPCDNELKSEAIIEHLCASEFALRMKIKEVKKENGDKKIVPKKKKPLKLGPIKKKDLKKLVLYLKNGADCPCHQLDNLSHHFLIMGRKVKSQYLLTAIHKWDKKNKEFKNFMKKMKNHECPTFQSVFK
Description: Fluorescence polarization binding assay (competitive displacement of a probe compound from SFRP-1).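 Note: test compound competes with a fluorescent probe held by SFRP-1, seen as a drop in probe anisotropy after incubation in darkness, with anisotropy as function of rising compound dose.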 The following applies: fluorescence anisotropy, 45 nM SFRP-1, 20 nM probe. On the technique in general: Fluorescence polarisation rises when a labelled molecule tumbles more slowly, as on binding a larger partner.

Experiment [2] addresses T1, SFRP-1. Description: Cell-based assay for in vitro measurement of SFRP-1/SARP2 antagonist activity (U2OS cells co-transfected with 16x TCF-tk-Luciferase reporter, Wnt and hSFRP-1).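 Note: U2OS cells co-transfected with a TCF-tk luciferase reporter, a Wnt vector, hSFRP-1 or empty vector and CMV-βgal, luciferase luminescence read in cell lysates alongside βgal activity.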 The following applies: U2OS.
[3] abbreviates: read-out: Fold Induction with SFRP-1, Conc 15 μM, with SFRP-1, fold induction over SFRP-1 control, single dose.
[4] abbreviates: read-out: Fold Induction without SFRP-1, Conc 15 μM, without SFRP-1, single dose.

Each structure is given as a SMILES string. “And” between values parts separate entries of the source, which are not always exact repeats. Equal entries are not always repeated. Where two headings read alike, the source gives them in different places.

`CCOc1ccccc1S(=O)(=O)c1ccc(C)c(S(=O)(=O)NCCc2ccccn2)c1` [Example 420, 5-[(2-ethoxyphenyl)sulfonyl]-2-methyl-N-(2-pyridin-2-ylethyl)benzenesulfonamide] came in with an IC50 on SFRP-1 [1] of 8000 nM. In addition, the fold induction at 15 µM at SFRP-1 [2] (setting [3]) is 2.4; on SFRP-1 [2] (setting [4]), 1.3.
In turn, `COc1ccc(OC)c(S(=O)(=O)c2ccc(C)c(S(=O)(=O)NCCc3ccccn3)c2)c1` [Example 421, 5-[(2,5-dimethoxyphenyl)sulfonyl]-2-methyl-N-(2-pyridin-2-ylethyl)benzenesulfonamide] gave an IC50 at SFRP-1 [1] of 9000 nM. In addition, the fold induction at 15 µM on SFRP-1 [2] (setting [3]) is 2.2; on SFRP-1 [2] (setting [4]), 1.2.
In the same order, the values of `COc1cccc(S(=O)(=O)c2ccc(C)c(S(=O)(=O)NCCc3ccccn3)c2)c1OC` [Example 422, 5-[(2,3-dimethoxyphenyl)sulfonyl]-2-methyl-N-(2-pyridin-2-ylethyl)benzenesulfonamide] are 2800 nM, 1.9 and 1.2.
The like results for `COc1ccc(S(=O)(=O)c2ccc(C)c(S(=O)(=O)NCCc3ccccn3)c2)c(OC)c1` [Example 423, 5-[(2,4-dimethoxyphenyl)sulfonyl]-2-methyl-N-(2-pyridin-2-ylethyl)benzenesulfonamide] were, in that order, 10000 nM, 2.4 and 1.1.
Compound `CCOC(=O)N1CCC(NS(=O)(=O)c2cc(S(=O)(=O)c3ccccc3)ccc2C)CC1` [Example 425, ethyl 4-({[2-methyl-5-(phenylsulfonyl)phenyl]sulfonyl}amino)piperidine-1-carboxylate] showed an IC50 on SFRP-1 [1] of 2800 nM. Further, the results for the fold induction at 15 µM at SFRP-1 [2] (setting [3]) and at SFRP-1 [2] (setting [4]) were 2.5 and 1.2, respectively.
As for `Cc1ccc(S(=O)(=O)c2ccc3[nH]ccc3c2)cc1S(=O)(=O)NCCc1ccccn1` [Example 427, 5-(1H-indol-5-ylsulfonyl)-2-methyl-N-(2-pyridin-2-ylethyl)benzenesulfonamide], the IC50 at SFRP-1 [1] was found to be 1100 nM. Further, the fold induction at 15 µM came out at 2 on SFRP-1 [2] (setting [3]) and 0.9 at SFRP-1 [2] (setting [4]).
The like results for `CC(C)c1ccc(S(=O)(=O)c2ccc(C(C)(C)C)cc2)cc1S(=O)(=O)NCCc1ccccn1` [Example 435, 5-[(4-tert-butylphenyl)sulfonyl]-2-isopropyl-N-(2-pyridin-2-ylethyl)benzenesulfonamide] were, in that order, 2600 nM, 1.7 and 1.
With `CC(C)c1ccc(S(=O)(=O)c2ccc(C(C)(C)C)cc2)cc1S(=O)(=O)NCCCn1ccnc1` [Example 436, 5-[(4-tert-butylphenyl)sulfonyl]-N-[3-(1H-imidazol-1-yl)propyl]-2-isopropylbenzenesulfonamide], the IC50 on SFRP-1 [1] was found to be 1000 nM. Also, the fold induction at 15 µM at SFRP-1 [2] (setting [3]) amounted to 2.2; at SFRP-1 [2] (setting [4]), 1.
Turning to `CC(C)c1ccc(S(=O)(=O)c2ccc(C(C)(C)C)cc2)cc1S(=O)(=O)NC1CCOCC1` [Example 437, 5-[(4-tert-butylphenyl)sulfonyl]-2-isopropyl-N-(tetrahydro-2H-pyran-4-yl)benzenesulfonamide], the IC50 at SFRP-1 [1] is 5000 nM. Also, the fold induction at 15 µM at SFRP-1 [2] (setting [3]) worked out at 2.2; at SFRP-1 [2] (setting [4]), 1.
With `Cc1ccc(S(=O)(=O)c2ccc(C(C)(C)C)cc2)cc1S(=O)(=O)NCCCn1ccnc1` [Example 439, 5-[(4-tert-butylphenyl)sulfonyl]-N-[3-(1H-imidazol-1-yl)propyl]-2-methylbenzenesulfonamide], the IC50 on SFRP-1 [1] came to 2000 nM. The figures for the fold induction at 15 µM on SFRP-1 [2] (setting [3]) and on SFRP-1 [2] (setting [4]) were 2 and 0.9, respectively.
In turn, `Cc1ccc(S(=O)(=O)c2ccc(C(C)(C)C)cc2)cc1S(=O)(=O)NC1CCOCC1` [Example 440, 5-[(4-tert-butylphenyl)sulfonyl]-2-methyl-N-(tetrahydro-2H-pyran-4-yl)benzenesulfonamide] displayed an IC50 on SFRP-1 [1] of 3000 nM. The fold induction at 15 µM was determined as 1.8 on SFRP-1 [2] (setting [3]) and 1.1 on SFRP-1 [2] (setting [4]).
On SFRP-1 [1], `CC(C)c1ccc(S(=O)(=O)c2ccc(F)cc2)cc1S(=O)(=O)NCCc1c[nH]cn1` [Example 442, 5-[(4-fluorophenyl)sulfonyl]-N-[2-(1H-imidazol-4-yl)ethyl]-2-isopropylbenzenesulfonamide] displayed an IC50 of 1000 nM. In addition, the fold induction at 15 µM at SFRP-1 [2] (setting [3]) was found to be 3.9; at SFRP-1 [2] (setting [4]), 1.
The like results for `CC(C)c1ccc(S(=O)(=O)c2ccc(F)cc2)cc1S(=O)(=O)NC[C@H](C)c1ccccc1` [Example 443, 5-[(4-fluorophenyl)sulfonyl]-2-isopropyl-N-[(2R)-2-phenylpropyl]benzenesulfonamide] were, in that order, 600 nM, 2.5 and 1.1.
`CC(C)c1ccc(S(=O)(=O)c2ccc(F)cc2)cc1S(=O)(=O)NCC1CCOCC1` [Example 445, 5-[(4-fluorophenyl)sulfonyl]-2-isopropyl-N-(tetrahydro-2H-pyran-4-ylmethyl)benzenesulfonamide] displayed an IC50 at SFRP-1 [1] of 1100 nM. Further, the fold induction at 15 µM at SFRP-1 [2] (setting [3]) stood at 2.9; on SFRP-1 [2] (setting [4]) it was 1.2.
Compound `Cc1ccc(S(=O)(=O)c2ccccc2)cc1S(=O)(=O)NC1CCN(C(=O)OC(C)(C)C)CC1` [Example 446, tert-butyl 4-({[2-methyl-5-(phenylsulfonyl)phenyl]sulfonyl}amino)piperidine-1-carboxylate] returned an IC50 on SFRP-1 [1] of 2000 nM. Also, the results for the fold induction at 15 µM on SFRP-1 [2] (setting [3]) and at SFRP-1 [2] (setting [4]) were 2.3 and 1.1, respectively.
With `Cc1ccc(S(=O)(=O)c2ccccc2)cc1S(=O)(=O)NC1CCN(S(=O)(=O)c2ccccc2)CC1` [Example 448, 2-methyl-5-(phenylsulfonyl)-N-[1-(phenylsulfonyl)piperidin-4-yl]benzenesulfonamide], at SFRP-1 [1], the half-inhibitory concentration (IC50) was 120 nM and 170 nM. Further, the figures for the fold induction at 15 µM at SFRP-1 [2] (setting [3]) and on SFRP-1 [2] (setting [4]) were 2 and 1.2, respectively.
In turn, `Cc1ccc(S(=O)(=O)c2ccccc2)cc1S(=O)(=O)NC1CCN(C(=O)c2ccco2)CC1` [Example 449, N-[1-(2-furoyl)piperidin-4-yl]-2-methyl-5-(phenylsulfonyl)benzenesulfonamide] came in with an IC50 at SFRP-1 [1] of 3000 nM. Also, the fold induction at 15 µM worked out at 2.8 at SFRP-1 [2] (setting [3]) and 1.1 on SFRP-1 [2] (setting [4]).
In the case of `CC(C)c1ccc(S(=O)(=O)c2ccc(NCCC#N)cc2)cc1S(=O)(=O)NCCn1ccnc1` [Example 450, 5-({4-[(2-cyanoethyl)amino]phenyl}sulfonyl)-N-[2-(1H-imidazol-1-yl)ethyl]-2-isopropylbenzenesulfonamide], the IC50 on SFRP-1 [1] was 400 nM and 200 nM and 300 nM. Besides, the values for the fold induction at 15 µM at SFRP-1 [2] (setting [3]) and on SFRP-1 [2] (setting [4]) were 4 and 1, respectively.
With `CCC(O)CNc1ccc(S(=O)(=O)c2ccc(C(C)C)c(S(=O)(=O)NCCn3ccnc3)c2)cc1` (stereo not drawn) [Example 452, 5-({4-[(2-hydroxybutyl)amino]phenyl}sulfonyl)-N-[2-(1H-imidazol-1-yl)ethyl]-2-isopropylbenzenesulfonamide], the IC50 on SFRP-1 [1] was 200 nM. Also, the values for the fold induction at 15 µM at SFRP-1 [2] (setting [3]) and on SFRP-1 [2] (setting [4]) were 3.8 and 1, respectively.
Compound `CC[C@H](C)C(CO)Nc1ccc(S(=O)(=O)c2ccc(C(C)C)c(S(=O)(=O)NCCn3ccnc3)c2)cc1` (stereo partly drawn) [Example 453, 5-[(4-{[(2S)-1-(hydroxymethyl)-2-methylbutyl]amino}phenyl)sulfonyl]-N-[2-(1H-imidazol-1-yl)ethyl]-2-isopropylbenzenesulfonamide] gave an IC50 at SFRP-1 [1] of 300 nM. The fold induction at 15 µM on SFRP-1 [2] (setting [3]) was found to be 4; at SFRP-1 [2] (setting [4]), 1.1.
`CC(C)c1ccc(S(=O)(=O)c2cccc(Cl)c2)cc1S(=O)(=O)NCCc1ccccn1` [Example 455, 5-[(3-chlorophenyl)sulfonyl]-2-isopropyl-N-(2-pyridin-2-ylethyl)benzenesulfonamide]: the half-inhibitory concentration (IC50) on SFRP-1 [1] is 500 nM. Also, the fold induction at 15 µM came out at 3.2 at SFRP-1 [2] (setting [3]) and 1 at SFRP-1 [2] (setting [4]).
As to `COc1cccc(S(=O)(=O)c2ccc(C(C)C)c(S(=O)(=O)NCCc3ccccn3)c2)c1` [Example 456, 2-isopropyl-5-[(3-methoxyphenyl)sulfonyl]-N-(2-pyridin-2-ylethyl)benzenesulfonamide], the IC50 on SFRP-1 [1] stood at 800 nM. Moreover, the fold induction at 15 µM was determined as 3.6 at SFRP-1 [2] (setting [3]) and 1 at SFRP-1 [2] (setting [4]).
Turning to `COc1ccccc1S(=O)(=O)c1ccc(C(C)C)c(S(=O)(=O)NCCc2ccccn2)c1` [Example 457, 2-isopropyl-5-[(2-methoxyphenyl)sulfonyl]-N-(2-pyridin-2-ylethyl)benzenesulfonamide], the IC50 at SFRP-1 [1] came to 1100 nM. For the same compound, the figures for the fold induction at 15 µM on SFRP-1 [2] (setting [3]) and at SFRP-1 [2] (setting [4]) were 2.9 and 1, respectively.
On SFRP-1 [1], `CC(C)(C)c1ccc(S(=O)(=O)c2ccccc2)cc1S(=O)(=O)NCCc1ccccn1` [Example 461, 2-tert-butyl-5-(phenylsulfonyl)-N-(2-pyridin-2-ylethyl)benzenesulfonamide] yielded an IC50 of 700 nM. In addition, the figures for the fold induction at 15 µM on SFRP-1 [2] (setting [3]) and on SFRP-1 [2] (setting [4]) were 1.7 and 1, respectively.
The like results for `COc1ccccc1C(=O)N1CCC(NS(=O)(=O)c2cc(S(=O)(=O)c3ccccc3)ccc2C)CC1` [Example 462, N-[1-(2-methoxybenzoyl)piperidin-4-yl]-2-methyl-5-(phenylsulfonyl)benzenesulfonamide] were, in that order, 2000 nM, 2.9 and 1.

Broadly, the IC50 is the concentration that inhibits the measured activity by half. High values mean a need for much substance, low ones inhibition by little substance.
